Test results: the METLIN SMRT retention time set (Domingo-Almenara et al. 2019)

Test: gradient 5% acetonitrile 3 min, to 50% in 2 min, to 85% in 15 min, held 3 min, 100 µL/min
Conditions: column: Zorbax Extend-C18 2.1 x 50 mm; eluents: water / acetonitrile, 0.1% formic acid
How it was run: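 Each retention time is based on an adduct peak selected computationally and verified by manual inspection. Measurements used HPLC–quadrupole time-of-flight mass spectrometry in positive and negative ionization mode on mixtures of ~100 pure standards. Chromatography ran on a Zorbax Extend-C18 column (2.1 × 50 mm, 1.8 μm) at 100 μL/min with water and acetonitrile, each containing 0.1% formic acid, and dead and dwell volumes of 40 μL and 900 μL.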

Row | Compound | RP-LC retention time
1 | COc1ccc(CCO[C@@H]2CCCC[C@H]2N2CC[C@@H](O)C2)cc1OC | 684 s
2 | Cc1cc(NC(=O)C(=O)NCC(O)c2cccc3ccccc23)no1 (stereo not given) | 734 s
3 | Cc1ccc(CNC(=O)NC2CCN(c3nc4cccnc4n(C)c3=O)CC2)cc1 | 860 s
4 | Cc1ccccc1NC(=O)C1CCc2nc(N3CCOCC3)ncc2C1 (stereo not given) | 723 s
5 | CCC(=O)NCc1nc2c(n1CC)CN(S(=O)(=O)c1ccc(F)cc1)CC2 | 575 s
6 | Cc1ccn2cc(CC(=O)Nc3ccccc3)nc2c1 | 588 s
7 | O=C(Nc1cnc(N2CCCC2)nc1)c1ccsc1 | 658 s
8 | CCOC(=O)c1[nH]c(C)c(CN(Cc2ccc3c(c2)OCO3)C(=O)C2CC2)c1C | 929 s
9 | CCS(=O)(=O)c1nc2ccc(NS(=O)(=O)c3cccc(Cl)c3)cc2s1 | 928 s
10 | CC1(C)C(=O)Nc2ccc(S(=O)(=O)N3CCC(c4noc(-c5ccccc5)n4)C3)cc21 (stereo not given) | 883 s
11 | Cc1cccc(CN2CCN(CC(=O)NC3CCN(Cc4ccccc4)CC3)C(=O)C2=O)c1 | 609 s
12 | COCCNC(=O)NCCC1CCN(S(=O)(=O)c2ccc(C)cc2)CC1 | 686 s
13 | Cc1ccc(C(=O)Nc2nccnc2C(=O)NC2CCCC2)cc1 | 1040 s
14 | O=C(C1=CN(c2ccccc2F)c2cc(F)ccc2S1(=O)=O)N1CCCCC1 | 848 s
15 | Cc1ccc(CN2C(=O)N(c3ccc(F)cc3)c3ncccc3S2(=O)=O)cc1 | 1100 s
16 | O=C(Nc1cc(C(F)(F)F)ccc1Cl)c1ccc2ncsc2c1 | 922 s
17 | CCc1nc2ccccc2c(=O)n1Cc1noc(-c2cccc(N(C)C)c2)n1 | 998 s
18 | COc1cccc(N2N=NC3C(=O)N(c4ccccc4)C(=O)C32)c1 (stereo not given) | 922 s
19 | O=C(Nc1ccc(N2CCCS2(=O)=O)cc1)NC(c1ccccc1)c1ccccc1 | 814 s
20 | CCNC(=O)C1CCCN(S(=O)(=O)c2c[nH]c(C(=O)N3CCCCCC3)c2)C1 (stereo not given) | 699 s
21 | O=c1ccn(-c2ccccc2)nc1-c1nc(-c2ccccn2)no1 | 685 s
22 | O=C(NC1CC1)c1cccn1Cc1noc(-c2ccccc2)n1 | 840 s
23 | COc1ccc(NC(=O)NCC(c2cccnc2)c2cn(C)c3ccccc23)cc1 (stereo not given) | 678 s

Row | Compound | RP-LC retention time
24 | CCC(=O)N1CCc2cc(N3CC(C(=O)N4CCN(c5ccccn5)CC4)CC3=O)ccc21 (stereo not given) | 584 s
25 | Cc1cc(N2CCN(C(=O)c3ccccc3)CC2)nc(N2CCOCC2)n1 | 612 s
26 | O=C(CCc1c(-c2ccc(Br)cc2)nc2ccccn12)Nc1ccc(F)c(F)c1 | 727 s
27 | COc1cccc(C2Cn3nnc(-c4nc(-c5ccccc5OC)no4)c3CO2)c1 (stereo not given) | 1010 s
28 | COCCNC(=O)c1ccc2c(c1)nc(C)n2-c1ccc(Br)cc1 | 666 s
29 | Cc1cccc(C)c1NS(=O)(=O)c1ccc(-c2c(C)noc2C)cc1 | 964 s
30 | COc1ccc(CC(C)(O)CNC(=O)Nc2cccs2)cc1 (stereo not given) | 699 s
31 | Cn1nc2c(c1NC(=O)COc1ccc(Cl)cc1Cl)CCC2 | 815 s
32 | CCNC(=O)N1CCC2(CC1)c1nccn1-c1ccccc1CN2CC(C)C | 623 s
33 | CN(C)c1ccc2c(c1)CN(C(=O)c1cnccn1)CCO2 | 566 s
34 | CC(C)n1cnc(S(=O)(=O)N2CCC(C(=O)NCCc3ccccc3)CC2)c1 | 745 s
35 | COc1cccc(-c2noc(C3CC(=O)N(c4ccc(F)cc4)C3)n2)c1OC (stereo not given) | 885 s
36 | CCc1nc(-c2csc(S(=O)(=O)N3CCC(C(=O)NCc4ccccn4)CC3)c2)no1 | 654 s
37 | O=C(CCCc1ccccc1)N1CCCC1c1nc(-c2ccccc2Cl)no1 (stereo not given) | 1140 s
38 | COc1ccc(-c2cc(=O)n3c4ccccc4n(CC(=O)NC(C)C)c3n2)cc1 | 853 s
39 | O=C(Oc1cccc(Oc2ccccc2)c1)N1CCOCC1 | 889 s
40 | O=C(NCCN1CCOCC1)c1nc(-c2ccnc(N3CCCCCC3)c2)no1 | 564 s
41 | COc1ccc(C(O)CN2CCN(c3ccc(C)cc3)CC2)cc1OC (stereo not given) | 644 s
42 | CCn1nccc1-c1cccc(-c2noc(CNC(=O)c3ccco3)n2)c1 | 791 s
43 | Cc1ccc(Nc2c(-c3cccc(O)c3)nc3cnccn23)c(Br)c1 | 843 s
44 | CCOc1ccc(N2C(=O)C3N=NN(Cc4nc(-c5ccc(OC)c(OC)c5)no4)C3C2=O)cc1 (stereo not given) | 906 s
45 | CSc1ccc(-c2nc3ccccn3c2Nc2ccc3c(c2)OCO3)cc1 | 711 s
46 | O=C(NC1CC1)C1CCN(C(=O)c2ncn3c2COC(c2ccc(F)cc2)C3)CC1 (stereo not given) | 630 s

Row | Compound | RP-LC retention time
47 | COc1cc(-c2ccc(F)cc2)nc2ccc(NS(=O)(=O)c3ccc(C#N)cc3)cc12 | 784 s
48 | COc1ccc(-c2noc(-c3nc(-c4ccc(OC)c(OC)c4)no3)n2)cc1OC | 1080 s
49 | CCOC(=O)C1CCN(c2nnc(-c3nc(C4CC4)no3)c3ccccc23)CC1 | 953 s
50 | O[C@H](CNC[C@@H](O)[C@H]1CCc2cc(F)ccc2O1)[C@@H]1CCc2cc(F)ccc2O1 | 791 s
51 | CCOc1ccc(CCNC(=O)c2cc3sc(Cl)cc3n2C)cc1OCC | 1110 s
52 | CCC(C)NC(=O)C1CCCN(c2cnc3nccnc3c2)C1 (stereo not given) | 608 s
53 | O=C(Nc1cccc(F)c1)N1CCN(c2cnn3c(C4CC4)nnc3c2)CC1 | 663 s
54 | CCn1cnc(S(=O)(=O)N2CCCC(C(=O)Nc3ccc(C)cc3)C2)c1 (stereo not given) | 748 s
55 | O=C(CCC1CCCC1)NCCC1CCN(C(=O)Nc2ccc(F)cc2F)CC1 | 880 s
56 | COc1ccc(CNC(=O)CN2CCN(Cc3ccccc3C)C(=O)C2=O)cc1 | 715 s
57 | Cc1nc2cc(NC(=O)c3ccc(N4CCOCC4)nn3)ccc2s1 | 676 s
58 | O=C(Cn1cccc1-c1nnc(C2CCC2)o1)Nc1ccc(Cl)cc1 | 968 s
59 | COc1ccccc1OCC1c2ccsc2CCN1C(=O)CN(CC1CC1)C(=O)NC(C)C (stereo not given) | 919 s
60 | Nc1ccc2c(c1)Cc1cc(Cl)c(Cl)cc1-2 | 963 s
61 | O=C(/C=C/c1ccccc1)Nc1cccc(-c2nnc3n2CCCC3)c1 | 708 s
62 | CC(C)(C)c1noc(-c2ccnc(-n3cnc(C(=O)NCc4ccccc4)c3)c2)n1 | 715 s
63 | CC(NC(=O)C1CCN(S(C)(=O)=O)c2cc(Cl)ccc2O1)c1ccccc1 (stereo not given) | 935 s
64 | CCOc1ccc(OCC)c(NC(=O)C2CCN(S(=O)(=O)c3cn(C(C)C)cn3)CC2)c1 | 888 s
65 | CC1(C(=O)NC2CC2)CC(c2ccccc2)=NO1 (stereo not given) | 749 s
66 | CC(C)S(=O)(=O)c1cc2c(cc1NC(=O)c1cccc(F)c1)n(C)c(=O)n2C | 846 s
67 | COc1ccc(OC)c(NC(=O)C2Cn3cccc3C(=O)N2C)c1 (stereo not given) | 699 s
68 | CC(=O)N1CCc2ccccc2C1C(=O)NCc1ccc(C(F)(F)F)cc1 (stereo not given) | 838 s
69 | O=C(Cc1csc(SCC(=O)c2cccs2)n1)Nc1ccc(F)c(Cl)c1 | 923 s

Row | Compound | RP-LC retention time
70 | COc1ccc(NC(=O)N2CC(c3nc(C(C)C)nn3C)C2)c(OC)c1 | 667 s
71 | O=C(CCC1CCCC1)Nc1ccc(N2CCN(C3CCCC3)C2=O)nc1 | 884 s
72 | Cc1c(-c2nnc(C(=O)NCCCN3CCOCC3)o2)oc2c(C)cccc12 | 696 s
73 | Cc1ccc(CNC(=O)C2CCN(c3nccnc3Sc3ccccc3)CC2)o1 | 958 s
74 | O=C(Cc1cccc2ccccc12)NCC1CCN(Cc2cccs2)CC1 | 572 s
75 | O=C(NCCC1=CCCCC1)C1CCCN(c2ccncc2)C1 (stereo not given) | 645 s
76 | O=C(Nc1nnc(SCc2ccc(Br)cc2)s1)c1ccccc1F | 1020 s
77 | COc1ccc(C(=O)CSc2nnc(-c3cc(C)oc3C)o2)cc1OC | 911 s
78 | CN1CCc2[nH]cnc2C12CCN(C(=O)Nc1ccccc1C(F)(F)F)C2 (stereo not given) | 569 s
79 | CC(C)CCNC(=O)N1CCC(OC2CCN(Cc3ccccc3)CC2)CC1 | 641 s
80 | CC(NC(=O)Cn1cnc(-c2noc(-c3ccncc3)n2)c1)c1ccccc1 (stereo not given) | 678 s
81 | Cc1nc2cc(-c3noc(-c4ccc(C#N)cc4)n3)ccc2n(C2CCCC2)c1=O | 691 s
82 | COc1ccccc1-c1csc(-c2nnn(-c3ccc(C)c(C)c3)c2N)n1 | 1220 s
83 | Cc1nnc(-c2ccc3ccn(CC(=O)Nc4ccc(C)c(C)c4)c3c2)o1 | 882 s
84 | CCc1nc(N)n(CC(=O)Nc2ccc(C)c(C)c2)c(=O)c1C | 650 s
85 | O=C(NCCC1=CCCCC1)c1cccn1-c1cccnc1 | 810 s
86 | N[C@H]1C[C@@H]1c1ccccc1 | 578 s
87 | CN(C)c1cccc(C(=O)NCC(=O)Nc2nc3ccccc3[nH]2)c1 | 594 s
88 | COC(=O)c1cccc(NC(=O)C2CCc3nc(N4CCOCC4)ncc3C2)c1 (stereo not given) | 746 s
89 | COc1ccccc1CNC(=O)c1cn(C)nc1S(=O)(=O)N1CCSCC1 | 847 s
90 | Cc1ccc(N2CCN(c3nccn4c(=O)n(CC(=O)Nc5cc(C)cc(C)c5)nc34)CC2)cc1 | 1030 s
